Positions of bridges follow the written chain, without caps; N, C: chain ends. Residues, ends and D or L forms follow the SMILES beside them.
Tests used:
peritoneal macrophages = test: Apoptosis and necrosis of thioglycollate-recruited peritoneal macrophages in vivo (annexin V, propidium iodide); settings: intraperitoneal injection, after 4 hours
Description: (§1) (FIG. 6A, FIG. 6B) Macrophages recruited to the peritoneal cavity by thioglycollate where challenged by intraperitoneal injections of either cM7, scM7 or the blocking anti-Mac-1 antibody M1/70. […] (FIG. 4C, FIG. 4D) In vitro cultivated human umbilical vein endothelial cells (HUVECs) were incubated with cM7, scM7 or a combination of CD40L or a blocking anti-CD40 antibody. […] Data are presented as mean±SEM of at least 3 independent experiments.

C57BL/6J mice [1] = test: In vivo thrombosis model (ferrichloride injury of mesenteric arteriole)
Description: (§2) Potential side effects were checked in an in vivo thrombosis model. 3-4 weeks old C57BL/6J mice received an intraperitoneal injection of either sterile saline (100 μl), the peptides cM7, scM7, or the indicated antibodies. A mesenteric arteriole was chosen and injured with ferrichloride. Platelets were stained by retroorbital injection of rhodamine […] and visualized through an intravital microscope (AxioScope Vario, Carl Zeiss). Vessel occlusion time and thrombus embolization rate was analyzed. Tail bleeding time was determined as previously reported (Andre et al., Loc. Cit.).

[2] = tested on: human umbilical vein endothelial cells (HUVECs); test: Cytotoxicity and apoptosis in cultivated HUVECs (caspase 3/7 activity, LDH release); type: cell-based
Description: as §1

LDLr−/− mice = test: Atherogenesis study, high-cholesterol diet 20 weeks; type: in vivo
Description: Atherogenesis study. Eight-week-old male LDL-receptor-deficient (LDLr^−/−) mice (Jackson Laboratories) consuming a high-cholesterol diet (HCD) were treated with intraperitoneal injections of the peptides cM7, scM7 (Peptide Specialty Laboratory) in a dose of 100 μg, or sterile saline three times a week. After 20 weeks blood samples were taken for flow cytometric analysis of leukocyte subpopulations, cholesterol and triglyceride plasma levels, as well as for the determination of plasma cytokines and chemokines. Blood pressure was determined by a non-invasive blood pressure measurement (NIBP, Harvard Apparatus). Mice were euthanized, and aortic roots and arches were frozen in OCT (OCT compound; Tissue-Tek). Thoracic and abdominal aortas were fixed in 10% buffered formalin. Serial cryostat sections (6 μm) of mouse aortic tissues were fixed in acetone, and air-dried. Nonspecific binding was blocked with 5% species-appropriate normal serum (Vector Laboratories). Sections were then incubated with primary antibodies diluted in phosphate-buffered saline, supplemented with 5% species-appropriate normal serum. Incubation with secondary antibodies was followed by avidin-biotin complex (ABC, Vector Laboratories). Antibody binding was visualized with 3-amino-9-ethylcarbazole (AEC; Dako), followed by counterstaining with Gill's hematoxylin solution (Sigma-Aldrich). Control stainings included staining with the respective IgG isotypes (Pharmingen, Dako). Antibodies used were rat anti-mouse Mac-3 for macrophage specific staining, anti α-actin for smooth muscle cell specific staining (Dako). For the visualization of Type I Collagen, Formalin-fixed frozen sections were incubated for 4 hours in a freshly prepared 0.1% solution of picrosirius red (Polysciences) in saturated aqueous picric acid. After rinsing in 0.01 N HCl and distilled water, sections were dehydrated in 70% ethanol and mounted in Permount (Vector Laboratories). Picrosirius red staining was analyzed by polarization microscopy. As the color of collagen fibers assessed in the picrosirius red staining depends on the thickness of collagen fibers and changes from green (thin fibers) to yellow, orange, and red (thick fibers), color distribution in stained collagen sections was quantified. Deposition of lipids was determined by oil red O staining after formalin fixation in aortic sections or in en face preparations of the abdominal aorta. To quantify the composition of the aortic lesions, sections of the aortic tissue were analyzed microscopically in all mice. Within the aortic root, lesion areas were analyzed in cross-sections obtained at the level of all 3 leaflets of the aortic valve, immediately proximal to the right coronary artery ostium. The total aortic wall area, lesion area in the aortic root, and the percentage of area stained for macrophages, lipids, SMCs, or collagen were determined via computer-assisted image quantification (ImagePro, Media Cybernetics).

C57BL/6J mice [3] = test: Tail bleeding time; settings: mouse, in vivo
Description: as §2

TNFα-challenged mice = settings: mouse, in vivo
Description: Mice received an intraperitoneal injection 5 hours before surgery of 200 ng of murine TNFα (R&D systems) and 100 μg of peptides dissolved in sterile saline 5 hours before surgery. Mice were anesthetized with an intraperitoneal injection of ketamine hydrochloride (Essex) and xylazin (Bayer) at a dose at 187.5 mg/kg of body weight and 62.5 mg/kg of body weight, respectively. The cremaster muscle was exteriorized as described previously (Iezzi et al., PNAS (2009), pp 876-881). For some experiments a catheter was placed in the jugular vein and peptides were administered during microscopy. The cremaster was superfused with thermo-controlled (36° C.) saline. Mice were placed on a heating pad to maintain body temperature. Videos were taken with an intravital microscope (AxioScope Vario, Carl Zeiss) fitted with a saline immersion objective (WPlan-APOCHROMAT 20x/1,0DIC IR, Carl Zeiss) a high sensitivity camera system (AxioCam MRm, Carl Zeiss) for 30 seconds each. Rolling leukocyte flux was defined as the number of leukocytes moving at a velocity less than erythrocytes. Leukocyte rolling velocity was measured by the average time required for leukocytes to roll over a defined length of the venule at each time point. Adherent leukocytes were defined as cells that remained stationary for at least 30 s. Rolling leukocyte flux, adhering flux were quantified by a blinded investigator.

[4] = tested on: CD40L-transfected murine fibroblasts; test: Flow cytometry: binding of FITC-cM7 to CD40L- or mock-transfected murine fibroblasts; type: cell-based
Description: Flow cytometric analysis, platelet activation assays, and quantification of leukocyte-platelet aggregates, were performed as previously described (Zirlik et al., 2007). Binding of cM7 to CD40L-expressing murine fibroblasts was determined by quantification of FITC-coupled cM7. Binding of CD40L to Mac-1 expressing CHO-cells or human leukocytes was performed by incubation with CD40L (10 μg/ml) and subsequent detection with anti-PentaHis antibody (Qiagen).
Flow cytometric analyses, as well as platelet activation assays and quantification of leukocyte-platelet aggregates were performed as previously described (Quezada et al., Ann. Rev. Immunol. (2004), pp 307-328). Briefly, murine blood samples were taken by intracardiac puncture. Red cells were lyzed in 155 mM NH4Cl, 5.7 mM K2HPO4, 0.1 mM EDTA, pH 7.3. […] Antibodies for epitope specific fluorescence-activated cell sorting (FACS Calibur, BD) included anti-CD11b, anti-CD115, anti-Gr-1, anti-CD4, anti-CD8, anti-CD20, anti-CD41, anti-CD62P, anti-CD54, anti-CD102, and anti-CD106 (all from Ebioscience). Binding of cM7 to CD40L- or mock-transfected murine fibroblasts was determined by incubation of FITC-cM7 at the indicated concentrations with cells for 30 min at 37° C. and subsequent quantification of the fluorescence in the FL-1 channel. […]

[5] = biological target: T1, CD40L binding to Mac-1 I-domain (Homo sapiens, UniProt P29965); test: Solid phase binding assay: blocking of CD40L binding to immobilized Mac-1 I-domain by peptides; settings: peptides 50 μM
T1 construct: inserting the coding DNA for amino acids E^108 to L^261 in pHOG-21; His (N); trimerization domain (N); made in house
T1 sequence (P29965 108-261): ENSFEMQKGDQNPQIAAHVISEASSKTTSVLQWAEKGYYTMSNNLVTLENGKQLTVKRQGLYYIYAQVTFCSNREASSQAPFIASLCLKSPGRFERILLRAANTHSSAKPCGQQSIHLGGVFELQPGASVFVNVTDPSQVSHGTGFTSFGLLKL
Description: Solid phase binding assay. Recombinant CD40L was incubated with immobilized Mac-1 I-domain in the presence or absence of blocking peptides. Binding of sCD40L was detected by addition of anti-cmyc-HRP (Invitrogen), TMB-substrate (Pierce), and colorimetric reaction. Alternatively, CD40L (Provitro) was immobilized, and binding of the recombinant Mac-1 I-domain was quantified by addition of anti-His-Biotin (Qiagen), and HRP-coupled streptavidin (Pierce). For the binding to immobilized peptides, CD40L was biotinylated with the Micro Biotinylation Kit (Sigma). A mixture of equal molarities of all peptides served as the positive control in this assay.
The recombinant Mac-1 I-domain was immobilized in 96-well plates (Nunc) in PBS at 4° C. overnight. After blocking in 2% BSA/PBS and subsequent washing with PBS, recombinant CD40L was added to the wells in the indicated concentrations and incubated for 2 hours at 37° C. Effect of the peptides M1-M8 was assessed by incubating CD40L (10 μg/ml) in the presence of peptides (50 μM). After removing of unbound CD40L by washing with 0.1% Tween-20/PBS, anti-c-myc-HRP (Invitrogen) was added and incubated for 2 hours at room temperature. Binding was quantified by addition of TMB-substrate (Pierce), colorimetric reaction at 450 nm. Alternatively, CD40L without a His-tag (Provitro) was immobilized and blocked as described above. Binding of the recombinant Mac-1 I-domain was quantified by addition of anti-His-Biotin monoclonal antibody (Qiagen), HRP-coupled streptavidin (Pierce) and colorimetric reaction at 450 nm. For the specific binding of the Mac-1 I-domain BSA-coated wells were subtracted from the CD40L-coated. Kd was estimated using a one-site binding hyperbola nonlinear regression model with the Software Prism (Graphpad). For quantification of the binding of CD40L to peptides, peptides were immobilized in 96-well plates overnight at 4° C. in 50 mM sodium carbonate, pH 10.6. CD40L was biotinylated using the Micro-Biotinylation-Kit (Sigma) following the manufacturer's instructions and detected by HRP-coupled streptavidin (Pierce) and colorimetric reaction. A mixture of equal molarities of all peptides served as positive control. Absorbance on BSA-coated wells served as negative control and was subtracted.

## CC(C)C[C@@H]1NC(=O)[C@H](CCC(N)=O)NC(=O)[C@H](CCC(=O)O)NC(=O)[C@@H](N)CSSC[C@@H](C(=O)O)NC(=O)[C@H](CC(C)C)NC(=O)[C@H]([C@@H](C)O)NC(=O)[C@H](CCCCN)NC(=O)[C@H](CO)NC(=O)[C@H](CCCCN)NC(=O)[C@H](CCCCN)NC1=O [cM7] (H-CEQLKKSKTLC-OH; disulfide 1-11 (inferred); N-terminus and C-terminus assumed)
Peritoneal macrophages
  apoptotic or necrotic cells in vivo (annexin V binding, propidium iodide loading): did not cause an increase of apoptotic or necrotic cells in vivo
C57BL/6J mice [1]; model of arterial thrombosis
  effect on vessel occlusion time: did not prolong vessel occlusion time
C57BL/6J mice [1]; mouse, in vivo
  effect on thromboembolization rate: only caused a slight increase in thromboembolization rate
[2]; CD40L primed HUVECs
  apoptosis of endothelial cells, LDH-release: slightly increased in CD40L primed HUVECs
[2]; HUVECs, 24 hours
  cellular cytotoxicity, caspase 3/7-activity: did not induce cellular cytotoxicity
LDLr−/− mice; AF
  Leukocytes: 4.54 ± 1.28 ×1000/μl
  Platelets: 486 ± 198 ×1000/μl
LDLr−/− mice; AF: after feeding
  Weight: 35.7 ± 3.8 g
LDLr−/− mice; BF
  Leukocytes: 11.2 ± 3.1 ×1000/μl
  Platelets: 529 ± 53 ×1000/μl
LDLr−/− mice; BF: before feeding
  Weight: 23.4 ± 2.3 g
LDLr−/− mice; long-term treatment
  immunologic characteristics (T cells, B cells, cytokines): Any changes in immunologic characteristics were not observed
C57BL/6J mice [3]
  effect on bleeding time: did not affect bleeding time
TNFα-challenged mice
  Heart rate: 628 ± 63 bpm
  Leukocytes: 11.9 ± 2.3 ×1000/μl
  Platelets: 552 ± 174 ×1000/μl
  Systolic blood pressure: 97.6 ± 6.5 mmHg

## C-EQLKKSKTL-C (CEQLKKSKTLC; bridge N-C; also: cyclised through the flanking Cys, bond type not given here) [FITC-labeled cM7]
[4]
  binding to murine fibroblasts over-expressing CD40L: concentration-dependently bound to murine fibroblasts over-expressing CD40L
[4]; control cells
  binding to mock-transfected fibroblasts: but not to respective mock-transfected control cells

## DAFRSEKSRQELNTI (therapeutically active peptide) [Peptide M4]
[5]
  blocking of CD40L / Mac-1 I-domain binding: emerged as potential candidate inhibitors

## FQVNNFEALKT (therapeutically active peptide) [Peptide M5]
[5]
  blocking of CD40L / Mac-1 I-domain binding: emerged as potential candidate inhibitors

## KFGDPLGYEDVIPEADR (therapeutically active peptide) [Peptide M3]
[5]
  blocking of CD40L / Mac-1 I-domain binding: emerged as potential candidate inhibitors

Reference: patent US10994010B2, “Selective targeting of the CD40L/Mac-1 interaction by small peptide inhibitors and its use for the treatment of inflammation and atherogenesis” (Universitaetsklinikum Freiburg, priority 2010, dated 2021)
